{"source": "paper PMC12867150", "about": "“A fungi-derived cyclic peptide enhances Th9-mediated antitumor immunity by targeting ZAP70 and SREBP1” (The Journal of Clinical Investigation, 2025)", "key": {"[1]": {"system": "Th9 cells", "experiment": "IL-9+ Th9 cells transduced with MIGR1 or SREBP1 vector (S8K-L)", "format": "cell-based, mouse", "settings": "for IL-9 gate number: representative flow plot, Figure S8K; for IL-9 expression of Th9 cells: Supplemental Figure 8L", "description": "For murine T cell transduction, MIGR1-based retroviral vector encoding Srebf1 was used. HEK293T cells were transfected with these constructs using Lipofectamine 3000 (Thermo Fisher Scientific) to produce viral particles. Supernatants were collected between 48 and 72 hours after transfection, filtered through a 0.45 μm membrane, and stored at –80°C. Naive murine CD4^+ T cells were activated with plate-bound anti-CD3 (2 μg/mL, clone 17A2, BioXCell) and soluble anti-CD28 (1 μg/mL, clone 37.51, BioXCell) stimulation in the presence of subset-specific polarizing cytokines and then transduced with viral supernatant supplemented with polybrene (10 μg/mL). […]\nCtrl MIGR1EpACtrl SREBP1EpA\nFigure S8. […]\n(K and L) Flow-cytometric analysis of IL-9 expression in Th9 cells transduced with either control (MIGR1) or SREBP1- […]\noverexpressing vectors, with or without EpA treatment, showing representative plots (K) and quantification of IL-9⁺ cells (L) (n = 3). […]\n(n = 3). Statistical analysis was performed using one-way ANOVA followed by Tukey’s post hoc test (G and H, J, L, N). ns, not significant. Repeated data are presented as mean ± SEM. *p < 0.05, **p < 0.01, ***p < 0.001, ****p < 0.0001."}, "[2]": {"system": "phosphorylated ZAP70", "experiment": "Flow cytometry of phosphorylated ZAP70 in human Th9 cells (Figure 8F)", "format": "cell-based", "settings": "result in words", "description": "For Th9 polarization, cultures were supplemented with IL-4 (10 ng/mL, PeproTech, catalog AF-200-04), TGF-β (1 ng/mL), and neutralizing anti–IFN-γ monoclonal antibody (10 μg/mL, clone B27, BioXcell, catalog BE0245). After 3 days of initial culture, cells were either collected for downstream assays or continued in extended culture with refreshed cytokines to maintain lineage commitment without antibodies. Th9 cells were collected at days 4, 5, and 6 for subsequent in vitro assays. For adoptive transfer studies, day 4–cultured Th9 cells were washed and prepared for intravenous injection.\nDetails regarding staining panels (human and mouse), reagents (including clones and catalog numbers), acquisition settings, compensation/controls, and analysis procedures are provided in Supplemental Methods.\nMH9A4, Biolegend, Cat. No. 507605, PE/Cy7, clone MH9A4, Biolegend, Cat. No. […]\nclone Mab11, Biolegend, Cat. No. 502908), Perforin (APC, clone dG9, Biolegend, Cat.\nFlow cytometric acquisition was performed using a BD Fortessa or Cytek Aurora cytometer. Data were analyzed with FlowJo software (v10.8.1 or newer). Fluorescence compensation, isotype-matched controls, and fluorescence-minus-one (FMO) controls were applied as appropriate for multicolor panel validation.\nCells were washed twice with PBS and lysed in 1 × lysis buffer (NCM, Cat. No. […]"}, "[3]": {"system": "human Th9 CAR T cells", "experiment": "Intracellular ATP of human Th9 CAR T cells (S9F)", "format": "cell-based", "settings": "result in words", "description": "Intracellular adenosine triphosphate (ATP) levels were measured using a chemiluminescent ATP assay kit (Beyotime, catalog S0026) according to the manufacturer’s protocol. Briefly, cells were lysed and incubated with the luciferase-based detection reagent, and the resulting luminescent signal was detected using an Infinite M200 multimode microplate reader (TECAN). ATP concentrations were calculated based on a standard curve and normalized to cell number or protein content where applicable.\nCt EpA Fat Fat Ct EpA Fat Fat\n(A) Flow-cytometric analysis of intracellular IL-9 expression in human Th9 cells […]\n(B) Flow-cytometric assessment of mitochondrial mass using Mito Tracker in human Th9 cells treated as in (A) (n = 3).\n(C) Flow-cytometric analysis of infection efficiency in Th9 cells transduced with a CD19-directed CAR lentivirus. (D and E) Flow-cytometric analysis of IL-9 expression in human Th9 CAR-T cells on days 5 and 6 of in vitro differentiation, showing representative plots (D) and quantification (E) (n = 3). […]\n(G) Flow-cytometric analysis of mitochondrial mass using Mito Tracker in human Th9 CAR-T c e l l s (n = 3). (H and I) Flow-cytometric analysis of granzyme B⁺ CAR-Th9 cells isolated from spleens after adoptive transfer, showing representative plots (H) and quantification (I) (n = 5 mice per group). […]"}}, "data": [{"substance": "anteiso-C15 Leu7 surfactin [EpA]", "values": [{"measurement": "IL-9 gate number", "setting": "[1]; MIGR1 control vector", "value": 69.8}, {"measurement": "IL-9 expression of Th9 cells", "setting": "[1]; MigR1, replicate 1", "value": 69.8}, {"measurement": "IL-9 expression of Th9 cells", "setting": "[1]; MigR1, replicate 2", "value": 68.8}, {"measurement": "IL-9 expression of Th9 cells", "setting": "[1]; MigR1, replicate 3", "value": 68.6}, {"measurement": "IL-9 gate number", "setting": "[1]; SREBP1-overexpressing vector", "value": 50.3}, {"measurement": "IL-9 expression of Th9 cells", "setting": "[1]; SREBP1, replicate 1", "value": 50.3}, {"measurement": "IL-9 expression of Th9 cells", "setting": "[1]; SREBP1, replicate 2", "value": 48.8}, {"measurement": "IL-9 expression of Th9 cells", "setting": "[1]; SREBP1, replicate 3", "value": 60.7}, {"measurement": "EpA-induced IL-9 increase (protein) upon SREBP1 overexpression", "setting": "[1]; result in words", "value": "markedly suppressed"}, {"measurement": "ZAP70 phosphorylation, human Th9", "setting": "[2]", "value": "increased phosphorylation of ZAP70"}, {"measurement": "ATP output, Th9 CAR T", "setting": "[3]", "value": "elevated"}]}]}
